Test results reported in EP0306167A2, “Stabilization of enzymes by inhibiting proteolytic enzyme contaminants” (TECHNICON INSTRUMENTS CORPORATION(a Delaware corporation), priority 1987, dated 1989).
“Also recorded” adds a separate entry of the source. Where two headings read alike, the source gives them in different places.

Columns and labels:
[1] = tested on: phosphoenol pyruvate carboxylase; assay: Stability of phosphoenol pyruvate carboxylase on storage with protease inhibitors (activity assay on TECHNICON RA-1000); type: biochemical; conditions: for Percent Activity Remaining at Time (hrs.): about 20 mg/ml enzyme, Benzamidine 4mM, p-Amino benzamidine 4mM, TPCK 0.5mM, Soya Bean Trypsin Inhibitor 10 mg/ml, Egg white Trypsin Inhibitor 10 mg/ml, BSA 20mg/ml, Aprotinin 0.5 mg/ml, PMSF 1 mM
Protocol: The activity assays to determine the stability of phosphoenol pyruvate carboxylase were done on a TECHNICON RA-1000 clinical analyzer in accordance with established protocols for such analysis. (TECHNICON RA-1000 is a registered trademark of Technicon Instruments Corporation, Tarrytown, N.Y.) In accordance with such protocol, the enzyme solution, R₂, was placed in the sample cup. The other constituents of the assay mixture, R₁, were placed in the reagent boat. 10 µl of R₂ were mixed with 350 µl of R₁. The reaction was done at 37°C and there was a 30 second incubation period before the readings were taken. The reported activity remaining refers to the percentage of the activity determined when fresh solutions were made initially.
The solid enzyme samples were dissolved in 50 mM Hepes, pH 7.0 containing 0.1% benzoic and .01% gentamicin (R₂). The stability study was done in R₂ containing about 20 mg/ml enzyme at room temperature. The ratio of soya bean trypsin inhibitor to phosphoenol pyruvate by weight mg/ml was 10:20. The specific activity of soya bean was 7000 BAEE inhibitor units/mg and that of phosphoenol pyruvate was one unit/mg. The components of the activity assay were in R₁ as NADH, 1.3 x 10⁻⁴M; phosphoenol pyruvate, 2.5 x 10⁻³M; magnesium acetate, 1.06 x 10⁻²M and NaHCO₃, 5 x 10⁻³M; were in 104 mM tris-acetate pH 8.3 (at room temperature).
The samples were stored at room temperature in 50 mM Hepes buffer pH 7.0 containing 0.1% benzoate acid .01% gentamycin. […]

PGM/PAGM enzyme solution = assay: Stability of PGM/PAGM enzyme solution on storage with protease inhibitors (coupled glucose-6-phosphate dehydrogenase rate assay at 340 nm); type: biochemical, Porcine; conditions: for time enzyme activity was protected / stabilizing effect compared between inhibitors (in words): DEAE-Tris acryl purified preparation, 4°C; for time enzyme activity was protected: 50 mM imidazole chloride pH 7.5, p-aminobenzamidine 5mM, benzamidine 5mM; for stabilizing effect compared between inhibitors (in words): pH 7.5, aprotinin .5 mg/ml, leupeptin 0.5 mg/ml, α,α′-bipyridal 2 mM; for effect on PGM/PAGM activity (in words): TPCK 2mM
Protocol: The presence of proteases was detected pursuant to the protocol discussed above. The quantitative assay for protease activity was done with N-α - benzoyl-L-arginine-p-nitroanalide as a substrate by a published procedure (H. Fritz, I. Truntschold and E. Werle; "Methods of Enzymatic Analysis", Ed. H. Bergmeyer, Vol. II, Academic Press, N.4. 1974). The method consist of (1) 0.2M triethanolamine buffer (pH 7.8) with 20 mM CaCl₂, (2) trypsin standard in 1 mM HCl, (3) substrate solution, 2.2 mM in water. The sensitivity can be enhanced four-fold if the concentration of the substrate was increased five times. A clear solution of the substrate was obtained by placing it in a boiling water bath for 5 minutes. The reaction mixture consisted of a .675 ml buffer and 0.325 ml substrate solution. The rate was measured at 405 nm at 37°C on a DU 8 spectrophotometer from Beckman Instruments, Inc. It was possible to detect protease activity equivalent to 1 mg/L trypsin when the standard trypsin was activity of 11000 u/mg with substrate N-α-benzoyl-L-arginine p-nitroanalide. The activity of the PGM/PAGM enzyme solution was determined using the following reaction mixture. NAD⁺, 10⁻³M; glucose-1-phosphate, 2x10⁻⁴M; glucose-1,6-diphosphate, 10⁻⁵M; Mg Acetate, 2 x 10⁻³M; EDTA, 2 x 10⁻⁴M and 1 u/ml glucose-6-phosphate dehydrogenase in 50 mM imidazole acetate, pH 7.5. The reaction was started by adding an aliquot of the enzyme solution and the rate was measured 37°C at 340 nm on a DU-8 spectro- photometer. This method is essentially similar to the literature procedures (W. Ray and E. Peck, The Enzymes, 6, 407, 1972. H. Bergmeyer, "Methods of Enzymatic Analysis" Ed. H. Bergmeyer Vol. I, Academic Press, N.Y. 1974).
A series of experiments were done to determine the stabilizing effect of various inhibitors. In one experiment the enzyme preparation included was 30-70% ammonium sulfate fraction. The effects of soya bean trypsin inhibitor (10 mg/ml), tosyl phenyl chloromethyl ketone (TPCK) (2mM) and α-antitrypsin inhibitor (2 mg/ml) were studied at pH 5.0 and 7.5, in 50 mM imidazole acetate buffer; 0.2 mM EDTA, 10 mM magnesium acetate. The stability was done at two pH values as the formation and dissociation of the inhibitor complex with trypsin is pH dependent. […] PAGM enzyme may also have serine residues at the active site. […] There was some protection afforded by α-antitrypsin inhibitor over longer periods of time at pH 7.5.
In another experiment, the enzyme preparation after ammonium sulfate fractionation was purified through DEAE-Tris acryl column chromatography. […] These trace amounts of proteases were sufficient to cause denaturation of the enzyme. A stability study using various inhibitors of proteases: aprotinin (.5 mg/ml), soybean trypsin inhibitor (5 mg/ml), p-aminobenzamidine (5mM), benzamidine (5mM), α,α′-bipyridal (2 mM) and leupeptin (0.5 mg/ml) was done. The enzyme was stored at 4°C in 50 mM imidazole chloride, 2 mM Mg acetate and .2 mM EDTA, pH 7.5. The activity was assayed at different times. […] The enzymes were stable in the presence of soya bean trypsin inhibitor for one week.

[2] = 20 Hrs, absence of (NH₄)₂SO₄, PMSF 1mM, α-Antitrypsin Inhibitor 5 mg/ml, p-Nitrophenyl-p-Guanidinobenzoate 0.1mg/ml, Ovomucoid 10 mg/ml, D-Tryptophan methyl ester 5mM, 4-Phenyl butylamine 10mM, D-Arginine 10mM, D-phenylalanine 5mM, control 35
[3] = 25 Hrs, absence of (NH₄)₂SO₄, PMSF 1mM, α-Antitrypsin Inhibitor 5 mg/ml, p-Nitrophenyl-p-Guanidinobenzoate 0.1mg/ml, Ovomucoid 10 mg/ml, D-Tryptophan methyl ester 5mM, 4-Phenyl butylamine 10mM, D-Arginine 10mM, D-phenylalanine 5mM, control 26
[4] = 2.5 hrs at room temperature in R2 (50 mM Hepes pH 7.0), control 80
[5] = 5 hrs at room temperature in R2 (50 mM Hepes pH 7.0), control 80
[6] = 23 hrs at room temperature in R2 (50 mM Hepes pH 7.0), control 25
[7] = 20 Hrs, in presence of (NH₄)₂SO₄ (50 mM), inhibitor concentrations as without salt (PMSF 1mM, α-Antitrypsin Inhibitor 5 mg/ml, p-Nitrophenyl-p-Guanidinobenzoate 0.1mg/ml, Ovomucoid 10 mg/ml, D-Tryptophan methyl ester 5mM)
[8] = 25 Hrs, in presence of (NH₄)₂SO₄ (50 mM), inhibitor concentrations as without salt (PMSF 1mM, α-Antitrypsin Inhibitor 5 mg/ml, p-Nitrophenyl-p-Guanidinobenzoate 0.1mg/ml, Ovomucoid 10 mg/ml, D-Tryptophan methyl ester 5mM)
[9] = NaCl up to 200 mM replacing (NH₄)₂SO₄ with 10 mg/ml ovomucoid, phosphoenol pyruvate 5 mM

| Percent Activity Remaining at Time (Hrs.) [1, 2] [%] | Percent Activity Remaining at Time (Hrs.) [1, 3] [%] | Structure (SMILES) | Percent Activity Remaining at Time (hrs.) [1, 4] [%] | Percent Activity Remaining at Time (hrs.) [1, 5] [%] | Percent Activity Remaining at Time (hrs.) [1, 6] [%] | also measured |
| --- | --- | --- | --- | --- | --- | --- |
| 57 | 51 | NCCCCc1ccccc1 [4-Phenyl butylamine] |  |  |  |  |
| 32 | 26 | COC(=O)[C@H](N)Cc1c[nH]c2ccccc12 [D-Tryptophan methyl ester] |  |  |  | Percent Activity Remaining at Time (Hrs.) [1, 7]: 68%; Percent Activity Remaining at Time (Hrs.) [1, 8]: 71% |
| 57 | 51 | N[C@H](Cc1ccccc1)C(=O)O [D-phenylalanine] |  |  |  |  |
| 42 | 36 | N=C(N)Nc1ccc(C(=O)Oc2ccc([N+](=O)[O-])cc2)cc1 [p-Nitrophenyl-p-Guanidinobenzoate] |  |  |  | Percent Activity Remaining at Time (Hrs.) [1, 7]: 60%; Percent Activity Remaining at Time (Hrs.) [1, 8]: 57% |

Further lines, the molecule ahead of its results:

| Structure (SMILES) | Percent Activity Remaining at Time (Hrs.) [1, 2] [%] | Percent Activity Remaining at Time (Hrs.) [1, 3] [%] | Percent Activity Remaining at Time (hrs.) [1, 4] [%] | Percent Activity Remaining at Time (hrs.) [1, 5] [%] | Percent Activity Remaining at Time (hrs.) [1, 6] [%] | also measured |
| --- | --- | --- | --- | --- | --- | --- |
| N=C(N)c1ccccc1 [Benzamidine] |  |  | 83 | 83 | 32 | time enzyme activity was protected (PGM/PAGM enzyme solution): 5 days |
| N=C(N)NCCC[C@@H](N)C(=O)O [D-Arginine] | 30 | 24 |  |  |  |  |
| CC(=O)N[C@@H](CC(C)C)C(=O)N[C@@H](CC(C)C)C(=O)N[C@H](C=O)CCCNC(=N)N [Leupeptin] |  |  |  |  |  | stabilizing effect compared between inhibitors (in words) (PGM/PAGM enzyme solution): equally effective |
| [Cl-].[Na+] [NaCl] |  |  |  |  |  | stabilizing effect on phosphoenol pyruvate carboxylase (in words) [1]: negligible |
| O=S(=O)(F)Cc1ccccc1 [PMSF, phenyl methyl sulfonyl fluoride] | 71 | 61 | 87 | 89 | 56 | Percent Activity Remaining at Time (Hrs.) [1, 7]: 90%; Percent Activity Remaining at Time (Hrs.) [1, 8]: 88%; stabilizing effect on phosphoenol pyruvate carboxylase (in words) [1, 9]: especially effective; also recorded: most effective stabilizer; original activity ([1]; PMSF in combination with ammonium sulfate, for 24 hours): 88%; Effectiveness ([1]; protection of PEPC activity, comparison of all effective inhibitors): 24 to 48 h |
| Cc1ccc(S(=O)(=O)N[C@@H](Cc2ccccc2)C(=O)CCl)cc1 [TPCK] |  |  | 74 | 68 | 28 | effect on PGM/PAGM activity (in words) (PGM/PAGM enzyme solution; pH 5.0, 30-70% ammonium sulfate fraction): destroyed the activity sooner than the control; effect on PGM/PAGM activity (in words) (PGM/PAGM enzyme solution; pH 7.5, 30-70% ammonium sulfate fraction, soya bean trypsin inhibitor 10 mg/ml, α-antitrypsin inhibitor 2 mg/ml): did not show any additional inactivation |
| N=C(N)c1ccc(N)cc1 [p-Amino benzamidine] |  |  | 75 | 75 | 28 | time enzyme activity was protected (PGM/PAGM enzyme solution): 14 days |
| C=C(OP(=O)(O)O)C(=O)O [phosphoenol pyruvate] |  |  |  |  |  | stabilizing effect on phosphoenol pyruvate carboxylase (in words) [1, 9]: unstable |
| c1ccc(-c2ccccn2)nc1 [α,α′-bipyridal] |  |  |  |  |  | stabilizing effect compared between inhibitors (in words) (PGM/PAGM enzyme solution): least effective |
